Test results published in publication PMC10963859 (Redox Biology, 2024).

Biological target: GPX4
Type: biochemical
Details: covalent; without GCTR

IC50: 12.4 µM
Structure (SMILES): COC(=O)c1ccc([C@H]2c3[nH]c4ccccc4c3C[C@H](C(=O)OC)N2C(=O)CCl)cc1 [RSL3]
